B1: pK15 CT^WT: pK15 cytoplasmic tail fused to GST at its N-terminal end, phosphorylated in vitro by Src (protein)
chain: SQLLNEVELQEVNRDPPNVFGYASILVSGAEESREPSPQPDQSGMSILRVDGGSAFRIDTAQAATQPTDDLYEEVLFPRN
modifications: tyrosine-phosphorylated in vitro by Src; sites not stated for this construct; left off: GST, N-terminal, kept

Experiments:
PLCγ1 nSH2 = molecular target: T1, PLCγ1 nSH2 (Homo sapiens, UniProt P19174); experiment: 1H,15N HSQC NMR titration, PLCγ1 nSH2; assay type: binding; settings: 1H-15N HSQC titration
T1 construct: nSH2 (545–662): 180 ± 43 nM; thioredoxin (pETM22 fusion, purified on Ni column) (N, cleaved yes); made in house; host or cells: E. coli BL21(DE3)
T1 sequence (P19174 545-662): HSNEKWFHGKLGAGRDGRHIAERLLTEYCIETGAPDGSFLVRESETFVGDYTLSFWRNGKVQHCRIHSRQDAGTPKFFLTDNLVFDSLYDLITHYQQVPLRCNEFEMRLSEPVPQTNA
Method: Fig 5 Affinity of pK15 peptide for PLCγ1 tSH2 or individual SH2 domains. (A) Binding curves of several PLCγ1 fragments in the presence of 200 nM 5,6-FAM-labelled pK15 (12mer). All measurements were performed in triplicate. […] (B and C) Overlay of ^1H,^15N HSQC NMR spectra of nSH2 (B) and cSH2 (C) alone (in yellow) and in the presence of 2 molar equivalents of the pK15 12mer peptide (blue), measured with a 600 MHz spectrometer at 298 K. The protein concentration was 100 μM and the buffer contained 100 mM MES, 150 mM NaCl, 3 mM TCEP, pH 6.5. (D and E) Excerpts from ^1H-^15N HSQC spectra of nSH2 (D) and cSH2 (E) upon addition of increasing concentrations of the pK15 12mer peptide.
Next, we used Nuclear Magnetic Resonance (NMR) spectroscopy to further compare the interaction of the phosphorylated pK15 12mer to the isolated nSH2 and cSH2 domains (Fig 5B–5E). We recorded ^1H-^15N HSQC spectra of each of the two domains in the presence of increasing concentrations of the pK15 peptide. In this spectrum, each N-H group of the protein gives rise to one peak. […] A change in the position of a few NMR peaks of the amide groups of the protein upon addition of the peptide is indicative of binding. […] The behavior of the NMR peaks during the titration series, however, differed for the two SH2 domains, indicating different binding kinetics. […] In light of this, it is conceivable that the preference of pK15 CT for cSH2 in vivo may be determined by kinetic rather than thermodynamic factors.
NMR experiments were recorded at 298 K on a 600-MHz Bruker Avance III-HD spectrometer equipped with an inverse HCN cryogenic probehead (nitrogen-cooled) and running Topspin 3.2 software. 2D ^15N-HSQC spectra were recorded using States-TPPI for frequency discrimination, with water suppression achieved via a combination of WATERGATE and water flip-back pulses to preserve the water magnetization. NMR data were processed in Topspin and analysed in CcpNmr Analysis v2.4 [74].

PLCγ1 SA domain = experiment: AlphaLISA, PLCγ1 SA; assay type: binding; settings: phosphorylated by 2xStrep-Src, 300 nM each protein, 1 h room temperature, 615 nm, at least two independent experiments
Method: Fig 4 The PLCγ1 cSH2 domain is required for the binding of PLCγ1 to phosphorylated pK15 in vitro and may serve as a dominant-negative inhibitor. GST-fused pK15 cytoplasmic tail WT (A), or its truncated mutant N2 [51] (B), were phosphorylated in vitro by 2xStrep-Src and an AlphaLISA was performed with the indicated His-tagged fragments of PLCγ1. Mean and standard deviation from at least two independent experiments with two technical replicates each are depicted. GST fusion proteins of the N1 (C) or N2 (D) truncation mutants of the pK15 cytoplasmic tail were phosphorylated in vitro by 2xStrep-Src and their interaction with recombinant purified PLCγ1 tSH2 (tandem SH2) or SA (γ-specific array) domains was measured by AlphaLISA in the presence of increasing concentrations (300 nM, 600 nM, 900 nM, 1200 nM) of the purified PLCγ1 cSH2. […] After 48h lysates were collected and analysed by Western blot using an antibody to PLCγ1 pY^783 to assess the level of PLCγ1 phosphorylation. (F) The intensities of the pPLCγ1 bands shown in panel E were quantified by densitometry, normalized to the values obtained with the empty vector (EV) in the presence of pK15, and plotted as relative values. […]
His-tagged PLCγ1 (SA, tSH2 or the isolated SH2 domains) was incubated at room temperature with GST-tagged K15P or its mutants for 1 hour. […] Emission at 615 nm was detected on BioTek Synergy 2 plate reader.

Molecule | dissociation rate koff or association rate kon of nSH2–peptide complex relative to cSH2–peptide complex (PLCγ1 nSH2; 298 K, pH 6.5) | NMR exchange regime (PLCγ1 nSH2; 600 MHz, 298 K, 100 μM protein, 100 mM MES, 150 mM NaCl, 3 mM TCEP, pH 6.5) | affinity for nSH2 compared with cSH2 (NMR) (PLCγ1 nSH2; same saturating concentration of peptide, either nSH2 or cSH2) | interaction (AlphaLISA) (PLCγ1 SA domain) | interaction (AlphaLISA) (PLCγ1 SA domain; listed as pK15 CT^N2)
DDLpYEEVLFPRN [pK15 12mer, phosphorylated peptide representing the last 12 amino acids of pK15 CT (DDLp…)] | more than one order of magnitude slower than the corresponding rate of the cSH2–peptide complex | slow exchange regime | both domains bound the K15 peptide with similar affinity | – | –
B1 | – | – | – | does interact with the PLCγ1 SA | only bound weakly to PLCγ1 SA

— article PMC8244865, “Recruitment of phospholipase Cγ1 to the non-structural membrane protein pK15 of Kaposi Sarcoma-associated herpesvirus promotes its Src-dependent phosphorylation” (PLoS Pathogens, 2021)
